The values below come from patent US6593365B1, “Diflunisal esters and related compounds” (The University of Queensland, priority 1997, dated 2003).

The first data set concerns in-situ perfused rat liver. Kind of data set: In-situ rat liver perfusions, hepatic extraction (Example 4). It counts as in vitro ADME. Particulars: 2% BSA in Krebs-Henseleit buffer as perfusate; hepatic extraction=1- hepatic availability (F). As for the experimental part: The hepatic availability (F) for the O-acyl esters of SA and DF was determined using a once through in-situ perfused rat liver preparation (Mellick and Roberts, 1996, J Pharm Pharmacol 48:738-743). Liver was perfused with protein-free Krebs-Henseleit buffer at 30 mL/min for aspirin analogues and with Krebs-Henseleit buffer containing 2% BSA for diflunisal esters studies. Since the solubilities of the diflunisal esters in protein-free media were very low, 2% BSA were used to help to solubilize these compounds. Briefly, 50 μL of a saturated solution of the particular O-acyl SA or DF in Krebs-Henseleit buffer was injected as a bolus into the portal vein cannula. Perfusate outflow samples have collected via a fraction collector over 3 min. 100 μL of these samples was assayed by HPLC to determine the residual concentration of presented ester and the quantity of phenolic metabolite (SA or DF) collected from the perfused liver. The HPLC assay was a modification of the method used by Owen et al. (1987, J Chrom B Biomed Appl 416 293-302) and Rumble et al. (1981, J Chrom 225 252-260).
The hepatic availability (F) was calculated from the ratio of the area under the first moment curve, i.e., outflow concentration time-time profile to the area under the curve for the salicylate phenolic esters, with the assistance of the Moments Calculator 2.2 program for Macintosh computer developed by Robert Purves (1994, J Pharm Sci 83:202-205).
For `CCCCCC(=O)Oc1ccc(-c2ccc(F)cc2F)cc1C(=O)O` [Compound C6D, n-hexanoyldiflunisal], the Hepatic extraction is recorded as 0.62.
On the same count and under the same terms, the same measure for `O=C(O)c1cc(-c2ccc(F)cc2F)ccc1O` [DF, 2′,4′-difluoro-4-hydroxy-3-biphenylcarboxylic acid, reference compound]: 0.38; for `CCCC(=O)Oc1ccc(-c2ccc(F)cc2F)cc1C(=O)O` [Compound C4D, n-butanoyldiflunisal]: 0.66; for `CCCCC(=O)Oc1ccc(-c2ccc(F)cc2F)cc1C(=O)O` [Compound C5D, n-pentanoyldiflunisal]: 0.62.
The molecule `CC(=O)Oc1ccc(-c2ccc(F)cc2F)cc1C(=O)O` [Compound C2D, acetyldiflunisal] gave a Hepatic extraction of 0.49.

The data set is the same for the next values; noted with them: protein-free Krebs-Henseleit buffer as perfusate; hepatic extraction=1- hepatic availability (F).
As for “O-acetylsalicylic acid [Compound C2SA, reference compound]”, the Hepatic extraction was determined as 0.15.
The same measure, in the same setting: for `CCCCC(=O)Oc1ccccc1C(=O)O` [Compound C5SA, n-pentanoylsalicylic acid] the value was 0.74; for `CCCC(=O)Oc1ccccc1C(=O)O` [Compound C4SA, n-butanoylsalicylic acid], 0.60.
Same read-out and setting: the same measure for `CCCCCC(=O)Oc1ccccc1C(=O)O` [Compound C6SA, n-hexanoylsalicylic acid]: 0.98.

Tested on in the next data set: not listed separately
In words: In vitro non-enzymatic hydrolysis in Krebs-Henseleit buffer. The following applies: Krebs-Henseleit buffer 0% BSA, pH 7.4, 25° C.; n=5; U = Undetectable. It counts as physicochemical. The procedure, abridged:
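Derivatives dissolved in Krebs-Henseleit buffer, pH 7.4, 25±1° C, with no protein or 2% w/v BSA; solutions sonicated and centrifuged, supernatant sampled over time. First-order hydrolysis rate constant k derived from ester concentration vs time, and half-life calculated from k.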
For the molecule `CCCCC(=O)Oc1ccccc1C(=O)O` [Compound C5SA, n-pentanoylsalicylic acid], the “Hydrolysis rate constant (k)” value is listed as 0.0061 ± 0.0027 hour^1.
The same measure, in the same setting: the same measure for `CC(=O)Oc1ccc(-c2ccc(F)cc2F)cc1C(=O)O` [Compound C2D, acetyldiflunisal]: 0.0378 ± 0.0105 hour^1.
Same read-out and setting: for `CCCC(=O)Oc1ccccc1C(=O)O` [Compound C4SA, n-butanoylsalicylic acid] the value was 0.0049 ± 0.0037 hour^1; for `CCCCCC(=O)Oc1ccccc1C(=O)O` [Compound C6SA, n-hexanoylsalicylic acid], 0.0059 ± 0.0023 hour^1.

Staying with this data set, now noted: Krebs-Henseleit buffer 2% BSA, pH 7.4, 25° C.; n=5.
As to `CCCCCC(=O)Oc1ccc(-c2ccc(F)cc2F)cc1C(=O)O` [Compound C6D, n-hexanoyldiflunisal], the “Hydrolysis rate constant (k)” value is recorded as 0.0056 ± 0.0042 hour^1.
The same measure, in the same setting: for `CCCCC(=O)Oc1ccccc1C(=O)O` [Compound C5SA, n-pentanoylsalicylic acid] the value was 0.0028 ± 0.0013 hour^1; for `CCCC(=O)Oc1ccc(-c2ccc(F)cc2F)cc1C(=O)O` [Compound C4D, n-butanoyldiflunisal], 0.0138 ± 0.0058 hour^1; for `CCCCC(=O)Oc1ccc(-c2ccc(F)cc2F)cc1C(=O)O` [Compound C5D, n-pentanoyldiflunisal], 0.0113 ± 0.0037 hour^1.
Still for that read-out and setting: the same measure for `CC(=O)Oc1ccc(-c2ccc(F)cc2F)cc1C(=O)O` [Compound C2D, acetyldiflunisal]: 0.0238 ± 0.0095 hour^1.
On the same count and under the same terms, for `CCCC(=O)Oc1ccccc1C(=O)O` [Compound C4SA, n-butanoylsalicylic acid] the value was 0.0031 ± 0.0015 hour^1; for `CCCCCC(=O)Oc1ccccc1C(=O)O` [Compound C6SA, n-hexanoylsalicylic acid], 0.0021 ± 0.0017 hour^1.

The same data set, now with this note: bovine, Krebs-Henseleit buffer with 2% w/v BSA, pH 7.4; read-out: Half life (t1/2) (converted).
`CCCCC(=O)Oc1ccccc1C(=O)O` [Compound C5SA, n-pentanoylsalicylic acid]: the half-life is 248 h.
Same read-out and setting: for `CCCC(=O)Oc1ccccc1C(=O)O` [Compound C4SA, n-butanoylsalicylic acid] the value was 224 h; for `CCCCCC(=O)Oc1ccccc1C(=O)O` [Compound C6SA, n-hexanoylsalicylic acid], 330 h.

The data set is the same for the next values; noted with them: protein-free Krebs-Henseleit buffer, pH 7.4; Krebs-Henseleit buffer 0% BSA; first half life; t1/2=0.693/k; U = Undetectable; read-out: Half life (t1/2) (converted).
Take `CCCCC(=O)Oc1ccccc1C(=O)O` [Compound C5SA, n-pentanoylsalicylic acid]: the half-life was 114 h.
Still for that read-out and setting: the same measure for `CCCC(=O)Oc1ccccc1C(=O)O` [Compound C4SA, n-butanoylsalicylic acid]: 141 h.
On the same count and under the same terms, the same measure for `CCCCCC(=O)Oc1ccccc1C(=O)O` [Compound C6SA, n-hexanoylsalicylic acid]: 117 h.

In a further data set the target is T1, BSA (bovine serum albumin) (Bos taurus, UniProt P02769).
T1 construct: BSA (bovine serum albumin, fraction V, Sigma); purchased Sigma; host or cells: bovine serum (fraction V)
T1 sequence (P02769 25-607): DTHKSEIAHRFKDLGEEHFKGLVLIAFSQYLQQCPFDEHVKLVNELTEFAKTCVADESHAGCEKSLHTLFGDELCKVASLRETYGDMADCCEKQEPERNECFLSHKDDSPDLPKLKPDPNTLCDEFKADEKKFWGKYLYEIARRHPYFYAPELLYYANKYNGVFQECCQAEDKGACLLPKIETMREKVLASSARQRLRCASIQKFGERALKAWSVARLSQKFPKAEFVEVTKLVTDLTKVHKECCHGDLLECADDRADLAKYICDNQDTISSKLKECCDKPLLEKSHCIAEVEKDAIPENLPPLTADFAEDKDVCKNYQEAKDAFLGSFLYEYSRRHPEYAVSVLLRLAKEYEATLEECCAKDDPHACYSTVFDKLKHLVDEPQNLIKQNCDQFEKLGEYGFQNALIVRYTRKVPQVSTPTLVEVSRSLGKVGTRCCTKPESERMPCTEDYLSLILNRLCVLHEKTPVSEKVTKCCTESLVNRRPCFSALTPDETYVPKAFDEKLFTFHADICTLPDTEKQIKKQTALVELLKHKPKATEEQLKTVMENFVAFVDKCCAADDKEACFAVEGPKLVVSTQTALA
In words: Protein binding by ultrafiltration in 2% BSA Krebs buffer. The following applies: 2% BSA Krebs-Henseleit buffer pH 7.4, 37° C.; slope of Scatchard plot. It counts as in vitro ADME. The method, then:
These experiments were carried out in Krebs-Henseleit buffer containing 2% w/v BSA (pH 7.4) and incubated at 37° C. for 30 minutes.
A known concentration of the ethanolic (≲1%) aspirin analogue or diflunisal ester stock solution was added to the 2% BSA Krebs solution to make final concentrations of 125 μM, 250 μM and 500 μM.
The unbound fraction (fu) of parent drug and its hydrolysis product were investigated using ultra-filtration: A 1.0 mL aliquot sample (in triplicate) was placed in a ultrafiltration tube (MPS-1, micro-partition system, Amicon) and centrifuged at 3000 g for 10 minutes. The ultra-filtrate was then assayed for parent drug and its hydrolysis product by HPLC.
To eliminate possible errors caused by hydrolysis, identical samples were placed in normal tubes and subjected to the same procedure. This control group (also in triplicate) was used to adjust for the percentage of hydrolysis in the ultra-filtrate under the experimental conditions.
The fu was determined as the ratio of the free concentration to total concentration of solutes. The binding constant (K) was determined from the slope of a Scatchard plot using following equation:
[Db]/[D]=−K[Db]vK[Pt] (3)
where [Db] is the concentration of bound drug, [D] is the concentration of drug, [Pt] is the concentration of total protein, and v is the number of independent binding sites available. This equation is plotted as the ratio [Db]/[D] versus [Db] and in this way the binding constant (K) is determined from the slope while vK[Pt] is determined from the intercept (Martin, 1983).
In the case of “O-acetylsalicylic acid [Compound C2SA, reference compound]”, the “Protein binding constant (K)” value stood at 192 L/mol.
On the same count and under the same terms, for `CCCCCC(=O)Oc1ccc(-c2ccc(F)cc2F)cc1C(=O)O` [Compound C6D, n-hexanoyldiflunisal] the value was 2995 L/mol; for `CCCCC(=O)Oc1ccccc1C(=O)O` [Compound C5SA, n-pentanoylsalicylic acid], 1525 L/mol; for `CCCC(=O)Oc1ccc(-c2ccc(F)cc2F)cc1C(=O)O` [Compound C4D, n-butanoyldiflunisal], 2365 L/mol.
Turning to `CCCCC(=O)Oc1ccc(-c2ccc(F)cc2F)cc1C(=O)O` [Compound C5D, n-pentanoyldiflunisal], the “Protein binding constant (K)” value is 2707 L/mol.
As for `CC(=O)Oc1ccc(-c2ccc(F)cc2F)cc1C(=O)O` [Compound C2D, acetyldiflunisal], the “Protein binding constant (K)” value was 2077 L/mol.
The same measure, in the same setting: the same measure for `CCCCCC(=O)Oc1ccccc1C(=O)O` [Compound C6SA, n-hexanoylsalicylic acid]: 2071 L/mol.

In another data set the test system is ischaemic/reperfusion rat livers. Kind of data set: Ischaemic/reperfusion injury in rat livers (LDH release, bile production). On the set-up: species or system Female Sprague-Dawley rats. The following applies: C is the ED50 molar dose. As for the experimental part: Female Sprague-Dawley rats (220-250 g) were anaesthetised by interperitoneal injection of pentobarbital sodium (60 mg/kg, Boehringer Ingelhein). […] The bile duct was cannulated with a polyethylene tubing (PE-10, I.D. 0.28 mm; Clay Adams, New Jersey) and bile was collected into pre-weighed microcentrifuge tubes at 70 min intervals (in the middle of experiment and the end of experiment). The portal vein was then cannulated using a 16 G intravenous catheter and the liver was perfused via this cannula with 2% BSA Krebs-Henseleit bicarbonate buffer (pH 7.4) and oxygenated using a membrane oxygenator comprising of silastic tubing and ventilated with carbogen (95% O2/5% CO2). The perfusion system used was recirculating and employed a peristaltic pump (Cole-Parmer, Illinois).
Following a 10 min pre-ischaemia perfusion, the perfusion flow was stopped for 30 min at 37° C. with the liver being kept moist. At the end of this ischaemic phase, a known concentration of the aspirin analogue or diflunisal ester's solution (in 2% BSA Krebs-Henseleit buffer) was added into the perfusate prior to the perfusion being resumed for another 100 min. Outflow fractions were collected up to 140 min. A biochemistry autoanalyzer (Hitachi, model 747; Tokyo, Japan) was employed to determine the level of enzyme (LDH) release.
The degree of ischaemic/reperfusion injury was measured by calculating the area under the LDH release ([…]) versus time curve (AUC). […] The efficacy of each compound is expressed in terms of ED50 which represents the molar dose for 50% reduction of LDH release compared to the control. The comparison of bile production between the first stage of experiment (the first 70 min) and the second stage of experiment (the last 70 min) is also used as index of liver function during an experiment.
In general terms: LDH leaks from cells whose membrane has failed.
For the molecule `CCCCCC(=O)Oc1ccc(-c2ccc(F)cc2F)cc1C(=O)O` [Compound C6D, n-hexanoyldiflunisal], the “log 1/C” value worked out at 4.68.
On the same count and under the same terms, for `CCCC(=O)Oc1ccc(-c2ccc(F)cc2F)cc1C(=O)O` [Compound C4D, n-butanoyldiflunisal] the value was 4.67; for `CCCCC(=O)Oc1ccc(-c2ccc(F)cc2F)cc1C(=O)O` [Compound C5D, n-pentanoyldiflunisal], 4.77.
Still for that read-out and setting: the same measure for `CC(=O)Oc1ccc(-c2ccc(F)cc2F)cc1C(=O)O` [Compound C2D, acetyldiflunisal]: 4.61.

The data set is the same for the next values; noted with them: Rattus norvegicus; C is the ED50 molar dose; read-out: log 1/C (converted).
With `CCCCC(=O)Oc1ccccc1C(=O)O` [Compound C5SA, n-pentanoylsalicylic acid], the EC50 was 34.7 µM.
Still for that read-out and setting: for `O=C(O)c1cc(-c2ccc(F)cc2F)ccc1O` [DF, 2′,4′-difluoro-4-hydroxy-3-biphenylcarboxylic acid, reference compound] the value was 25.1 µM; for `CCCC(=O)Oc1ccccc1C(=O)O` [Compound C4SA, n-butanoylsalicylic acid], 49 µM.
For `CCCCCC(=O)Oc1ccccc1C(=O)O` [Compound C6SA, n-hexanoylsalicylic acid], the EC50 is 28.8 µM.

The same data set, now with this note: Rattus norvegicus; molar dose for 50% reduction of LDH release compared to control; 30 min ischaemia, 100 min reperfusion; read-out: ED50 (the source's name).
In the case of `CCCCC(=O)Oc1ccccc1C(=O)O` [Compound C5SA, n-pentanoylsalicylic acid], the EC50 came out at 34.6 µM.
On the same count and under the same terms, the same measure for `O=C(O)c1cc(-c2ccc(F)cc2F)ccc1O` [DF, 2′,4′-difluoro-4-hydroxy-3-biphenylcarboxylic acid, reference compound]: 25.2 µM; for `CCCC(=O)Oc1ccccc1C(=O)O` [Compound C4SA, n-butanoylsalicylic acid]: 48.8 µM; for `CCCCCC(=O)Oc1ccccc1C(=O)O` [Compound C6SA, n-hexanoylsalicylic acid]: 29.1 µM.
